Test results as given in PubChem BioAssay AID200 (DTP/NCI, 2004).
Several values for one entry are separate records, joined by “and”; a condition that tells them apart may be missing. Equal entries are not always repeated. Inconclusive results and toxic doses are left out. *1 amine or outer side, *2 acyl side, *3 side chain or, on linkers, in order; H or OH if unused. Where a SMILES comes first, the peptide text is derived from it. [ ]: non-standard residue; d: D form. The star is where a group is joined. X3 = CCC(=O)CC1CC(C)CC(C(=O)[*:2])N1[*:1]; X2 = CCCCCCCCC(C)C(=O)*; Cbz = O=C(OCc1ccccc1)*; Aib = CC(C)(N)C(=O)O; X4 = CC(CN(C)CCO)N*

Test system: B6C3F1 mice, B16 melanoma ip, median survival T/C
Assay: NCI In Vivo Anticancer Drug Screen. Data for tumor model B16 Melanoma (intraperitoneal) in B6C3F1 mice
Settings: endpoint: median survival time, higher = longer survival
Method in brief: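 Transplantable tumor in mice; treated vs vehicle control groups; survival or tumor size measured; value = T/C ratio.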

[1] = dose: 25.0 mg/kg/injection, schedule: Q01DX009 (ip), vehicle: water
[2] = dose: 50.0 mg/kg/injection, schedule: Q01DX009 (ip), vehicle: water
[3] = dose: 100.0 mg/kg/injection, schedule: Q01DX009 (ip), vehicle: water
[4] = dose: 200.0 mg/kg/injection, schedule: Q01DX009 (ip), vehicle: water
[5] = dose: 12.5 mg/kg/injection, schedule: Q01DX009 (ip), vehicle: saline with Tween-80
[6] = dose: 25.0 mg/kg/injection, schedule: Q01DX009 (ip), vehicle: saline with Tween-80
[7] = dose: 50.0 mg/kg/injection, schedule: Q01DX009 (ip), vehicle: saline with Tween-80
[8] = dose: 100.0 mg/kg/injection, schedule: Q01DX009 (ip), vehicle: saline with Tween-80
[9] = dose: 200.0 mg/kg/injection, schedule: Q01DX009 (ip), vehicle: saline with Tween-80
[10] = dose: 12.5 mg/kg/injection, schedule: Q01DX009 (ip), vehicle: Klucel (hydroxypropylcellulose) (HPC)
[11] = dose: 25.0 mg/kg/injection, schedule: Q01DX009 (ip), vehicle: Klucel (hydroxypropylcellulose) (HPC)
[12] = dose: 50.0 mg/kg/injection, schedule: Q01DX009 (ip), vehicle: Klucel (hydroxypropylcellulose) (HPC)
[13] = dose: 100.0 mg/kg/injection, schedule: Q01DX009 (ip), vehicle: Klucel (hydroxypropylcellulose) (HPC)
[14] = dose: 200.0 mg/kg/injection, schedule: Q01DX009 (ip), vehicle: Klucel (hydroxypropylcellulose) (HPC)

OC1OC2COC(c3ccccc3)OC2C(O)C1O (centres undefined)
T/C [1]: 103 % of control
T/C [2]: 96 % of control
T/C [3]: 110 % of control
T/C [4]: 98 % of control
T/C (dose: 400.0 mg/kg/injection, schedule: Q01DX009 (ip), vehicle: water): 94 % of control
T/C (dose: 800.0 mg/kg/injection, schedule: Q01DX009 (ip), vehicle: water): 93 % of control

c1ccc2sc(SSN3CC4CCC(CC4)C3)nc2c1
T/C [5]: 95 % of control and 108 % of control
T/C [6]: 93 % of control and 102 % of control
T/C [7]: 87 % of control and 102 % of control
T/C [8]: 97 % of control
T/C [9]: 87 % of control
T/C (dose: 400.0 mg/kg/injection, schedule: Q01DX009 (ip), vehicle: saline with Tween-80): 88 % of control

COC12[C@@H]3N[C@@H]3CN1C1=C(C(=O)C(NCCSSCCNC3=C(C)C(=O)C4=C(C3=O)C(COC(N)=O)[C@]3(OC)C5N[C@@H]5CN43)=C(C)C1=O)[C@@H]2COC(N)=O (some centres undefined)
T/C (dose: 0.75 mg/kg/injection, schedule: Q04DX003 (ip), vehicle: suspension in saline): 193 % of control
T/C (dose: 1.5 mg/kg/injection, schedule: Q04DX003 (ip), vehicle: suspension in saline): 190 % of control
T/C (dose: 3.0 mg/kg/injection, schedule: Q04DX003 (ip), vehicle: suspension in saline): 218 % of control
T/C (dose: 6.0 mg/kg/injection, schedule: Q04DX003 (ip), vehicle: suspension in saline): 218 % of control
T/C (dose: 12.0 mg/kg/injection, schedule: Q04DX003 (ip), vehicle: suspension in saline): 218 % of control

O=C(O)C1CC(c2ccccc2)=NN1c1ccccc1 (centres undefined)
T/C (dose: 12.5 mg/kg/injection, schedule: Q01DX009 (ip), vehicle: water): 113 % of control
T/C [1]: 120 % of control
T/C [2]: 107 % of control
T/C [3]: 103 % of control
T/C [4]: 110 % of control

CCOC(=O)Nc1cc2c(c(N)n1)N=C(c1ccc3ccccc3c1)CN2
T/C (dose: 0.5 mg/kg/injection, schedule: Q01DX009 (ip), vehicle: saline with Tween-80): 97 % of control
T/C (dose: 1.0 mg/kg/injection, schedule: Q01DX009 (ip), vehicle: saline with Tween-80): 110 % of control
T/C (dose: 1.44 mg/kg/injection, schedule: Q01DX009 (ip), vehicle: saline with Tween-80): 101 % of control
T/C (dose: 2.0 mg/kg/injection, schedule: Q01DX009 (ip), vehicle: saline with Tween-80): 113 % of control and 116 % of control
T/C (dose: 2.4 mg/kg/injection, schedule: Q01DX009 (ip), vehicle: saline with Tween-80): 106 % of control
T/C (dose: 4.0 mg/kg/injection, schedule: Q01DX009 (ip), vehicle: saline with Tween-80): 109 % of control and 122 % of control and 107 % of control
T/C (dose: 6.67 mg/kg/injection, schedule: Q01DX009 (ip), vehicle: saline with Tween-80): 113 % of control
T/C (dose: 8.0 mg/kg/injection, schedule: Q01DX009 (ip), vehicle: saline with Tween-80): 119 % of control
T/C (dose: 11.12 mg/kg/injection, schedule: Q01DX009 (ip), vehicle: saline with Tween-80): 119 % of control

CC[C@]1(O)C[C@H]2CN(CCc3c([nH]c4ccccc34)[C@@](C(=O)OC)(c3cc4c(cc3OC)N(C=O)[C@H]3[C@@](O)(C(=O)OC)[C@H](OC(C)=O)[C@]5(CC)C=CCN6CC[C@]43[C@@H]65)C2)C1
T/C (dose: 0.06 mg/kg/injection, schedule: Q01DX009 (ip), vehicle: saline): 160 % of control
T/C (dose: 0.12 mg/kg/injection, schedule: Q01DX009 (ip), vehicle: saline): 159 % of control and 176 % of control
T/C (dose: 0.25 mg/kg/injection, schedule: Q01DX009 (ip), vehicle: saline): 171 % of control and 196 % of control
T/C (dose: 0.5 mg/kg/injection, schedule: Q01DX009 (ip), vehicle: saline): 190 % of control
T/C (dose: 0.5 mg/kg/injection, schedule: Q01DX009 (ip), vehicle: water): 108 % of control
T/C (dose: 31.25 micrograms/kg/injection, schedule: Q01DX009 (ip), vehicle: water): 154 % of control
T/C (dose: 62.5 micrograms/kg/injection, schedule: Q01DX009 (ip), vehicle: water): 186 % of control
T/C (dose: 125.0 micrograms/kg/injection, schedule: Q01DX009 (ip), vehicle: water): 193 % of control
T/C (dose: 250.0 micrograms/kg/injection, schedule: Q01DX009 (ip), vehicle: water): 227 % of control

O=C(NNC(=O)c1cccc(C(=O)NNC(=O)c2ccc(Cl)c(Cl)c2)n1)c1ccc(Cl)c(Cl)c1
T/C [10]: 94 % of control and 105 % of control
T/C [11]: 102 % of control
T/C [12]: 91 % of control and 102 % of control
T/C [13]: 94 % of control and 103 % of control
T/C [14]: 105 % of control

CC(=O)OCC1OC(OC2=C(CC=C(C)C)C(=O)c3ccccc3C2=O)C(OC(C)=O)C(OC(C)=O)C1OC(C)=O (centres undefined)
T/C (dose: 3.12 mg/kg/injection, schedule: Q01DX009 (ip), vehicle: Klucel (hydroxypropylcellulose) (HPC)): 104 % of control
T/C (dose: 6.25 mg/kg/injection, schedule: Q01DX009 (ip), vehicle: Klucel (hydroxypropylcellulose) (HPC)): 95 % of control
T/C [10]: 98 % of control
T/C [11]: 106 % of control
T/C [12]: 94 % of control

CCCCCCCCC(C)C(=O)N1CCCC1C(=O)N1C(CC(=O)CC)CC(C)CC1C(=O)NC(C)C(=O)NC(C)(C)C(=O)NC(C)(C)C(=O)NC(C(=O)NC(C)C(=O)NC(C)(C)C(=O)NC(C)(C)C(=O)NC(C)CN(C)CCO)C(C)CC (centres undefined) (X2-P[X3]A[Aib][Aib]IA[Aib][Aib]-X4; configuration not given here)
T/C (dose: 0.15 mg/kg/injection, schedule: Q01DX009 (ip), vehicle: Klucel (hydroxypropylcellulose) (HPC)): 98 % of control
T/C (dose: 0.31 mg/kg/injection, schedule: Q01DX009 (ip), vehicle: Klucel (hydroxypropylcellulose) (HPC)): 91 % of control
T/C (dose: 0.62 mg/kg/injection, schedule: Q01DX009 (ip), vehicle: Klucel (hydroxypropylcellulose) (HPC)): 97 % of control
T/C (dose: 1.25 mg/kg/injection, schedule: Q01DX009 (ip), vehicle: Klucel (hydroxypropylcellulose) (HPC)): 89 % of control
T/C (dose: 2.5 mg/kg/injection, schedule: Q01DX009 (ip), vehicle: Klucel (hydroxypropylcellulose) (HPC)): 92 % of control
T/C (dose: 5.0 mg/kg/injection, schedule: Q01DX009 (ip), vehicle: Klucel (hydroxypropylcellulose) (HPC)): 86 % of control

Nc1nc(Br)nc2c1ncn2C1CC(O)C(CO)O1 (centres undefined)
T/C (dose: 7.5 mg/kg/injection, schedule: Q03HX009 (ip), vehicle: saline): 96 % of control
T/C (dose: 15.0 mg/kg/injection, schedule: Q03HX009 (ip), vehicle: saline): 96 % of control
T/C (dose: 30.0 mg/kg/injection, schedule: Q03HX009 (ip), vehicle: saline): 93 % of control
T/C (dose: 60.0 mg/kg/injection, schedule: Q03HX009 (ip), vehicle: saline): 101 % of control

CCC(C)C(NC(=O)OCc1ccccc1)C(=O)NC(C(=O)O)C(C)C (stereo not drawn) (Cbz-Ile-Val-OH; configuration not given here)
T/C [13]: 91 % of control
T/C [14]: 94 % of control
T/C (dose: 400.0 mg/kg/injection, schedule: Q01DX009 (ip), vehicle: Klucel (hydroxypropylcellulose) (HPC)): 94 % of control

COP12(OCCO1)SC(C(F)(F)F)=C(C(F)(F)F)S2
T/C [5]: 100 % of control
T/C [6]: 96 % of control
T/C [7]: 104 % of control

Nc1c(/C=C/c2cc3cc(C4=NCCN4)ccc3o2)[nH]c2cc(C3=NCCN3)ccc12
T/C (dose: 1.5 mg/kg/injection, schedule: Q01DX009 (ip), vehicle: Klucel (hydroxypropylcellulose) (HPC)): 108 % of control
T/C (dose: 3.0 mg/kg/injection, schedule: Q01DX009 (ip), vehicle: Klucel (hydroxypropylcellulose) (HPC)): 98 % of control
T/C (dose: 6.0 mg/kg/injection, schedule: Q01DX009 (ip), vehicle: Klucel (hydroxypropylcellulose) (HPC)): 95 % of control
T/C (dose: 12.0 mg/kg/injection, schedule: Q01DX009 (ip), vehicle: Klucel (hydroxypropylcellulose) (HPC)): 98 % of control
T/C [10]: 90 % of control
T/C (dose: 24.0 mg/kg/injection, schedule: Q01DX009 (ip), vehicle: Klucel (hydroxypropylcellulose) (HPC)): 90 % of control
T/C [11]: 89 % of control

Cc1ccc2c(c1)n([O-])c1cc(Cl)ccc1[n+]2=O
T/C [5]: 105 % of control
T/C [6]: 101 % of control
T/C [7]: 122 % of control
T/C [9]: 111 % of control

ClCc1ccc2ccccc2n1
T/C [6]: 107 % of control
T/C [7]: 102 % of control

O=C(NC(Cc1ccccc1)C(=O)O)c1ccccc1 (centres undefined)
T/C [6]: 112 % of control
T/C [7]: 112 % of control and 90 % of control
T/C [8]: 96 % of control and 100 % of control

CC(=O)Nc1ccc(/C=N/Nc2ccc([N+](=O)[O-])cn2)cc1
T/C [5]: 89 % of control
T/C [6]: 89 % of control
